Experiments:
[1] = tested on: SCID mice with CD4+CD45RB high T-cell transfer colitis; assay: Adoptive T-cell transfer colitis mouse model; assay type: in vivo; conditions: for reduction of histopathology sum score: vehicle sum score 10
Description: Adoptive T-cell transfer colitis model is accepted as a relevant mouse model for human inflammatory bowel disease (IBD). To induce colitis in this model, the CD4 T-lymphocyte population is isolated from the spleens of donor mice. Subsequently, a subpopulation of CD4+CD45RB high T-cells is purified by cell sorting using flow cytometry. The purified CD4+CD45RB high T-cells are injected into the peritoneal cavity of the recipient severe combined immunodeficiency (SCID) mice. Colitis develops approximately three to six weeks after T-cell transfer, which is monitored by loss of body weight, inconsistent stool or bloody diarrhea. Testing of combinations of an FXR agonist and an additional therapeutic agent described herein is initiated at the same time of injecting purified CD4+CD45RBhigh T-cells to the recipient SCID mice. Alternatively, the combinations of an FXR agonist and an additional therapeutic agent described herein are administered two or three weeks post T-cell transfer, when colitis has already developed in the model. During the period of administering the combinations of an FXR agonist and an additional therapeutic agent described herein to mice, the therapeutic effects may be monitored by observations on body weights, stool consistency, or rectal bleeding. After euthanasia, the disease development and effects of the compounds are further quantified by measuring colon weight and length, and colon histology by H&E staining for inflammation and structural changes in mucosa, and protein and RNA expression of genes related to the disease.

[2] = Phase 1 multiple ascending dose PK in healthy subjects (plasma Compound 1 concentrations); assay type: in vivo, human
From the text: Purpose: The purposes of this study was to assess the safety and tolerability of single and multiple oral doses of Compound 1, to characterize the pharmacokinetics (PK) of single and multiple oral doses of Compound 1, to characterize the pharmacodynamics (PD) of single and multiple oral doses of Compound 1, and to identify the recommended multiple oral dose level(s) of Compound 1 for future studies in patients. The study was a first-in-human, 2-part, single-center Phase 1, randomized, double-blind, placebo-controlled study in healthy male subjects.
PK: Plasma Compound 1 concentrations, Plasma PK parameters.
(§1) 6 groups of 10 healthy male subjects each to investigate the safety, tolerability, PK, and PD of multiple oral doses of Compound 1. Subjects in all groups received ascending multiple oral doses of Compound 1 or matching placebo once daily on Days 1 to 14. Dosing was conducted under fasted conditions on each dosing day. Patients in each group received multiple oral doses of 20, 40, 50, 80, 100, and 150 mg of Compound 1 once daily on days 1 to 14 of the study. Eight members of each group received Compound 1, and two members of each group received placebo.

[3] = tested on: total bile acids; assay: Phase 1 MAD pharmacodynamics: total bile acids; assay type: in vivo, human; conditions: healthy subjects, 50-150 mg/day cohorts, day 14
Description: (§2) PD: Plasma levels of 7-alpha-hydroxy-4-cholesten-3-one (C4), plasma levels of fibroblast growth factor 19 (FGF19), and levels of total bile acids (for Part B only).
as §1

[4] = tested on: 7-alpha-hydroxy-4-cholesten-3-one (C4); assay: Phase 1 MAD pharmacodynamics: plasma C4; assay type: in vivo, human; conditions: healthy subjects
Description: as §2, §1

[5] = tested on: fibroblast growth factor 19 (FGF19); assay: Phase 1 MAD pharmacodynamics: plasma FGF19; assay type: in vivo, human; conditions: healthy subjects, multiple doses 20 mg to 150 mg
Description: as §2, §1

[6] = tested on: subjects with NASH (liver fat content); assay: NASH clinical trial Part 1: hepatic fat; assay type: in vivo, human; conditions: NASH patients, 50 mg daily, after 28 days
Description: Purpose: The purposes of this study was to evaluate the safety and tolerability of Compound 1 monotherapy in subjects with NASH, to characterize the pharmacokinetics (PK) of Compound 1, to characterize the pharmacodynamics (PD) of Compound 1 dose and response, to estimate the activity of Compound 1 using Magnetic Resonance Imaging-Proton Density Fat Fraction (MRI-PDFF) and NASH fibrosis biomarkers.
(§3) Part 1: An open-label, uncontrolled, single-center study assessing 50 mg of Compound 1 treatment for 4 weeks; 10 subjects were enrolled.
Length of Study: Subjects enrolled in Part 1 participated in the study for approximately 12 weeks, which included a 4-week screening period, 4 weeks (28 days) for the treatment period, and 4 weeks for follow-up. […]
The 10 patients with NASH who enrolled in the study received 50 mg doses of Compound 1 daily for a period of 28 days as described above. Hepatic fat levels in each patient were assessed prior to treatment with Compound 1, after 28 days of treatment with Compound 1, then again 28 days after cessation of treatment with Compound 1.

[7] = tested on: alanine aminotransferase (ALT); assay: NASH clinical trial Part 1: ALT; assay type: in vivo, human; conditions: NASH patients, 50 mg daily
Description: as §3
(§4) Length of Study: Subjects enrolled in Part 1 participated in the study for approximately 12 weeks, which included a 4-week screening period, 4 weeks (28 days) for the treatment period, and 4 weeks for follow-up. Subjects enrolled in Part 2 will participate in the study for approximately 20 weeks, which includes an approximate 4-week screening period, 12 weeks (84 days) for the treatment period, and 4 weeks for follow-up. • Study Treatment (Part 1): Subjects enrolled in Part 1 received Compound 1 50 mg for 28 consecutive days. • Study Treatment (Part 2): Subjects enrolled in Part 2 will receive Compound 1 (80 mg or 50 mg) or matching placebo for 84 consecutive days.
Levels of alanine aminotransferase (ALT) and gamma-glutamyl transferase (GGT) were assessed in subjects prior to administration of Compound 1, after 14 days of dosing of Compound 1, and after 28 days of dosing of Compound 1. The resulting percent changes from baseline for these biomarkers can be seen in FIG. 6A, FIG. 6B.

[8] = tested on: gamma-glutamyl transferase (GGT); assay: NASH clinical trial Part 1: GGT; assay type: in vivo, human; conditions: NASH patients, 50 mg daily
Description: as §3, §4
The resulting percent changes from baseline for these biomarkers can be seen in FIG. 6A, FIG. 6B.

[9] = NASH clinical trial Part 1: plasma levels of Compound 1; assay type: in vivo, human; conditions: 50 mg, healthy and NASH patients
Description: as §3
Pharmacokinetic Assessments: Blood samples will be taken according to the PK sampling schedule.
as §4

[10] = molecular target: T1, hFXR (Homo sapiens, UniProt Q96RI1); assay: In Vitro FXR Assay (TK); assay type: cell-based; conditions: transfected CV-1 cells, luminescence, 18 hrs
T1 construct: expressed in transfected cells; host or cells: CV-1 cells
T1 sequence (Q96RI1 1-486): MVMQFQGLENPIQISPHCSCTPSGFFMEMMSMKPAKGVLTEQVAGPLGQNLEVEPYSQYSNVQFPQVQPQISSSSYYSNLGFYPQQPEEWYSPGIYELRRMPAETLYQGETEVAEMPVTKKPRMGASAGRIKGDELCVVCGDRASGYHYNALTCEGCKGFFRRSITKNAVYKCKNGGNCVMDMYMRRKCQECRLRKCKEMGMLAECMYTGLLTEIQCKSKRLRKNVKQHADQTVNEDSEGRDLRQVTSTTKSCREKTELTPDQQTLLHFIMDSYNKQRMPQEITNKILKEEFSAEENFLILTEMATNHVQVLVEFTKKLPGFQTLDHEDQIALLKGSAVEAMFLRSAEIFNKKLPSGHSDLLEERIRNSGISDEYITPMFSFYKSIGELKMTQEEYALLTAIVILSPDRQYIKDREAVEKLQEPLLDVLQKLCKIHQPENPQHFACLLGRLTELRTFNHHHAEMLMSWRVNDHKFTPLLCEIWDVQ
T1 sequence (P19793 1-462 partner): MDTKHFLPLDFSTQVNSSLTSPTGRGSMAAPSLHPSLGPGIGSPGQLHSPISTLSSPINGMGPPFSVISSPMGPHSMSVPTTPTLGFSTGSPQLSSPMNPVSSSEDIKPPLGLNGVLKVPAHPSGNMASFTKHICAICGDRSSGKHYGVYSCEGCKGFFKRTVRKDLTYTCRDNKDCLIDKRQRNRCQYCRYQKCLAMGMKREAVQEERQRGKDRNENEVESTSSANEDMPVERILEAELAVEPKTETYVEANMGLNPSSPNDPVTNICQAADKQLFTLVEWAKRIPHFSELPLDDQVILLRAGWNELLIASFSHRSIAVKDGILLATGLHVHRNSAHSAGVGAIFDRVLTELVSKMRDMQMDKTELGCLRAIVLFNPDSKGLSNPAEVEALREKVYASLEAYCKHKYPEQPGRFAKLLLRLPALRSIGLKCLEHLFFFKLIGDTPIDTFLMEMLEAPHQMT
Description: CV-1 cells were seeded at a density of 2,000,000 cells in a T175 flask with DMEM+10% charcoal double-stripped FBS and incubated at 37° C. in 5% CO2 for 18 h (O/N).
After 18 h of incubation, the medium in the T175 flask was changed with fresh DMEM+10% charcoal super-stripped serum. In a polypropylene tube, 2500 μL OptiMEM (Life Technologies, Cat #31985-062) was combined with expression plasmids for hFXR, hRXR, TK-ECRE-luc and pCMX-YFP. The tube was then briefly vortexed and incubated at room temperature for 5 minutes. Transfection reagent (X-tremeGENE HP from Roche, Cat #06 366 236 001) was added to the OptiMEM/plasmid mixture vortexed and incubated at room temperature for 20 minutes. Following incubation, the transfection reagent/DNA mixture complex was added to cells in the T175 flask and the cells were incubated at 37° C. in 5% CO2 for 18 h (O/N).
Compounds were serially diluted in DMSO and added to transfected CV-1 cells. The cells were then incubated for 18 hrs. The next day cells were lysed and examined for luminescence.

Structure (SMILES): COc1ncc(-c2cccc(N(C[C@H]3CC[C@H](c4ccc(OC)c(C)c4)CC3)C(=O)[C@H]3CC[C@H](O)CC3)c2)s1 [Compound 2, (1R,4R)-4-hydroxy-N-(((1R,4R)-4-(4-methoxy-3-methylphenyl)cyclohexyl)methyl)-N-(3-(2-methoxythiazol-5-yl)phenyl)cyclohexane-1-carboxamide]
- reduction in colon W/L as compared to vehicle ([1]; 10 mg/kg): 41%
- reduction of histopathology sum score ([1]; 10 mg/kg): 71%
- reduction in colon W/L as compared to vehicle ([1]; 30 mg/kg): 38%
- reduction of histopathology sum score ([1]; 30 mg/kg): 74%
- reduction in body weight from baseline caused by T-cell transfer ([1]; 12% body weight reduction after CD4+CD45RBhi T-cell transfer, Compound 2 at 10 mg/kg): reversed
- efficacy in reducing colitis relative to comparators ([1]; adoptive T-cell transfer model): efficacy superior to CsA and comparable to anti-IL-12/23 treatment

Structure (SMILES): COc1ccc([C@H]2CC[C@H](CN(c3cccc(-c4cnn(C5CC5)c4)c3)C(=O)[C@H]3CC[C@H](O)CC3)CC2)cc1C [Compound 1]
- plasma levels at 24 hours following dosing ([2]; 14 days once daily oral dosing): high levels in the plasma at 24 hours following dosing
- plasma drug exposure with dose ([2]; 14 days once daily oral, 20 mg to 150 mg): increase in plasma drug exposure with dose
- change in bile acid levels [3]: decrease in bile acid levels
- dose at which the decrease in C4 levels was notable ([4]; Day 14): ≥ 50 mg
- mean C4 levels at 24 hours post dose ([4]; Day 14): remained decreased
- mean C4 levels versus placebo ([4]; multiple doses 20 mg to 150 mg, Day 14, most dose levels): lower than for placebo treatment
- mean FGF19 levels [5]: increased
- time of maximum increase in mean FGF19 levels [5]: 6 to 10 hours post dose
- average reduction in fatty liver deposits from baseline [6]: 20.3%
- ALT decrease from baseline ([7]; day 14): 7.9%
- ALT below baseline ([7]; day 28): 16.5%
- GGT levels decrease [8]: 23.2%
- GGT decrease from baseline ([8]; day 28): 36.3%
- plasma levels over the 24 hour period after dosing [9]: remained nearly constant
- EC50 [10]: ≤ 0.25 µM

From patent US20220323414A1, “FARNESOID X RECEPTOR AGONISTS FOR THE TREATMENT OF DISEASE” (Metacrine, Inc., priority 2018, published 2022)
